Legend:
[1] = Inhibition of ERK phosphorylation in human NCI-H358 cells incubated for 2 hrs by cellular assay; format: cell-based; details: NCI-H358, 2 h
GTPase KRas = GTPase KRas (Homo sapiens, UniProt P01116, C118S/C51S/C80L/G12C); experiment: Inhibition of biotinylated KRAS G12C/C51S/C80L/C118S mutant (unknown origin) pretreated for 60 mins followed by recombinant SOS addition by SOS-catalyzed nucleotide exchange-based TR-FRET analysis
GTPase KRas, sequence (P01116 whole entry G12C/C51S/C80L/C118S): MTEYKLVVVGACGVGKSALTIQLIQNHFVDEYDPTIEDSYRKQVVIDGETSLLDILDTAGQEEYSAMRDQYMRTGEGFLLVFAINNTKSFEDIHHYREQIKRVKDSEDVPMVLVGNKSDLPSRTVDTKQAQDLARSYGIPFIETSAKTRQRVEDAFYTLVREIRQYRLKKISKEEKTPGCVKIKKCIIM

SMILES | IC50 [1] [nM] | IC50 (GTPase KRas) [nM]
C=CC(=O)N1C[C@H](C)N(c2nc(=O)n3c4nc(c(Cl)cc24)-c2c(ccc(F)c2F)OCCCc2ncnc(C(C)C)c2-3)C[C@H]1C | 3.6 | –
C=CC(=O)N1C[C@H](C)N(c2nc(=O)n3c4nc(c(F)cc24)-c2c(Cl)cccc2OCCCc2ccnc(C(C)C)c2-3)C[C@H]1C | 3.6 | –
[2H]C1([2H])Oc2ccc(F)c(F)c2-c2nc3c(cc2Cl)c(N2C[C@@H](C)N(C(=O)C=C)C[C@@H]2C)nc(=O)n3-c2c(ccnc2C(C)C)OC1([2H])[2H] | 6.1 | 0.51
C=CC(=O)N1CCN(c2nc(=O)n3c4nc(c(Cl)cc24)-c2c(F)cccc2OCC(F)(F)CCc2ccnc(C(C)C)c2-3)[C@@H](C)C1 | 3 | 0.56
C=CC(=O)N1C[C@H](C)N(c2nc(=O)n3c4nc(c(F)cc24)-c2c(ccc(F)c2F)OCCC(C)c2ccnc(C(C)C)c2-3)C[C@H]1C (stereo partly drawn) | 6.8 | –
C=CC(=O)N1C[C@H](C)N(c2nc(=O)n3c4nc(c(F)cc24)-c2c(F)cccc2OCCCc2ccnc(C(C)C)c2-3)C[C@H]1C | 8.8 | –
C=CC(=O)N1CCN(c2nc(=O)n3c4nc(c(F)cc24)-c2c(F)cccc2OCCCc2ccnc(C(C)C)c2-3)[C@@H](C)C1 | 6.7 | 4.3
C=CC(=O)N1CCN(c2nc(=O)n3c4nc(c(F)cc24)-c2c(F)cccc2OCCCCc2ccnc(C(C)C)c2-3)[C@@H](C)C1 | 1.5 | 2.4
C=CC(=O)N1C[C@H](C)N(c2nc(=O)n3c4nc(c(F)cc24)-c2c(F)cccc2OCCCCc2ccnc(C(C)C)c2-3)C[C@H]1C | 2.2 | –
C=CC(=O)N1C[C@H](C)N(c2nc(=O)n3c4nc(c(Cl)cc24)-c2c(F)ccc(F)c2OCCOc2ccnc(C(C)C)c2-3)C[C@H]1C | 4.4 | 1.1
C=CC(=O)N1C[C@H](C)N(c2nc(=O)n3c4nc(c(Cl)cc24)-c2c(F)cccc2OCCc2ccnc(C(C)C)c2-3)C[C@H]1C | 5.1 | 2.6
C=CC(=O)N1C[C@H](C)N(c2nc(=O)n3c4nc(c(Cl)cc24)-c2c(F)cccc2OCC(F)(F)COc2ccnc(C(C)C)c2-3)C[C@H]1C | 6.1 | –
